Values quoted from earlier work, collected in patent publication US9889109B2, “Pharmaceutical composition comprising benzyl alcohol for the treatment of migraines” (St. Renatus, LLC, priority 2012, dated 2018).

pKa: approximately 8.4 | unionized molecules (pH 7.4): 1-2%
Structure (SMILES): CCCCNc1ccc(C(=O)OCCN(C)C)cc1 [tetracaine, 2-(dimethylamino)ethyl 4-(butylamino)benzoate]
